# Earlier results in paper PMC10114980, “Triple targeting of mutant EGFR^L858R/T790M, COX-2, and 15-LOX: design and synthesis of novel quinazolinone tethered phenyl urea derivatives for anti-inflammatory and anticancer evaluation” (Journal of Enzyme Inhibition and Medicinal Chemistry, 2023).
# System: EGFR
# Conditions: Figure 2; cited from earlier work
row,Compound,IC50 [nM]
1,O=C(CNc1ccc(Cl)cc1)Cn1c(-c2ccccc2)nc2ccccc2c1=O [G],81
2,Cc1cccc(Cl)c1NC(=O)Nc1ccc(-c2nc(NCCN(C)C)c3ccccc3n2)cc1 [I],56
